In patent US20260137703A1, “2-AMINO-PYRIDO[2,3-D]PYRIMIDIN-7(8H)-ONE AND 7-AMINO-1-PYRIMIDO[4,5-D]PYRIMIDIN-2(1 H)-ONE DERIVATIVES AS EGFR INHIBITORS FOR THE TREATMENT OF CANCER” (Cancer Research Technology Limited, priority 2022, published 2026):
pIC50: −log10 of the molar value.

Experiments:
[1] = target: CtermHisTag-mEGFR Wild type (Homo sapiens, UniProt P00533); assay: biochemical
[2] = target: T1, Phospho-EGFR (Tyr1068) in H1975 C797S cells (CRISPR-edited EGFR C797S) (Homo sapiens, UniProt P00533, C797S/L858R/T790M); assay: HTRF pEGFR/total EGFR in H1975 C797S cells; format: cell-based; settings: ratio pEGFR/total EGFR, compound 3 hours
T1 construct: host or cells: H1975 C797S (CRISPR-edited)
In short: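 Readout is the HTRF-measured Tyr1068 phospho-EGFR to total EGFR ratio, normalised to the 0 μM control as percent. Preceding this, CRISPR-edited H1975 C797S cells, plated 24 h earlier, were exposed 3 h to duplicate compound doses in medium with 0.1% DMSO, then lysed on a shaker.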

[3] = target: T2, Phospho-EGFR (Tyr1068) in H1975 cells (Homo sapiens, UniProt P00533, L858R/T790M); assay: HTRF pEGFR/total EGFR in H1975 cells; format: cell-based; settings: ratio pEGFR/total EGFR, compound 3 hours
T2 construct: host or cells: H1975
In short: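 Readout is the phospho-EGFR (Tyr1068) to total EGFR HTRF ratio, expressed relative to 0 μM control. Adhered H1975 cells were exposed to compound for 3 hours at 0.1% DMSO, duplicate wells, then lysed for 30 min at room temperature before two-wavelength fluorescence reading.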

[4] = target: T3, Phospho-EGFR (Tyr1068) in A431 cells (Homo sapiens, UniProt P00533); assay: HTRF pEGFR/total EGFR in A431 cells with EGF stimulation; format: cell-based; settings: ratio pEGFR/total EGFR, compound 2.5 hours then 100 ng/ml EGF 30 mins
T3 construct: endogenous in cells; host or cells: A431
In short: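 Values are pEGFR(Tyr1068)/total EGFR HTRF ratios (665/620 nm) given as percent of the 0 μM control. Adhered A431 cells (20,000 per well, 24 h) had 2.5 h compound pretreatment in 0.1% DMSO, then 30 min of 100 ng/ml EGF before lysis.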

T3 sequence (P00533 25-1210): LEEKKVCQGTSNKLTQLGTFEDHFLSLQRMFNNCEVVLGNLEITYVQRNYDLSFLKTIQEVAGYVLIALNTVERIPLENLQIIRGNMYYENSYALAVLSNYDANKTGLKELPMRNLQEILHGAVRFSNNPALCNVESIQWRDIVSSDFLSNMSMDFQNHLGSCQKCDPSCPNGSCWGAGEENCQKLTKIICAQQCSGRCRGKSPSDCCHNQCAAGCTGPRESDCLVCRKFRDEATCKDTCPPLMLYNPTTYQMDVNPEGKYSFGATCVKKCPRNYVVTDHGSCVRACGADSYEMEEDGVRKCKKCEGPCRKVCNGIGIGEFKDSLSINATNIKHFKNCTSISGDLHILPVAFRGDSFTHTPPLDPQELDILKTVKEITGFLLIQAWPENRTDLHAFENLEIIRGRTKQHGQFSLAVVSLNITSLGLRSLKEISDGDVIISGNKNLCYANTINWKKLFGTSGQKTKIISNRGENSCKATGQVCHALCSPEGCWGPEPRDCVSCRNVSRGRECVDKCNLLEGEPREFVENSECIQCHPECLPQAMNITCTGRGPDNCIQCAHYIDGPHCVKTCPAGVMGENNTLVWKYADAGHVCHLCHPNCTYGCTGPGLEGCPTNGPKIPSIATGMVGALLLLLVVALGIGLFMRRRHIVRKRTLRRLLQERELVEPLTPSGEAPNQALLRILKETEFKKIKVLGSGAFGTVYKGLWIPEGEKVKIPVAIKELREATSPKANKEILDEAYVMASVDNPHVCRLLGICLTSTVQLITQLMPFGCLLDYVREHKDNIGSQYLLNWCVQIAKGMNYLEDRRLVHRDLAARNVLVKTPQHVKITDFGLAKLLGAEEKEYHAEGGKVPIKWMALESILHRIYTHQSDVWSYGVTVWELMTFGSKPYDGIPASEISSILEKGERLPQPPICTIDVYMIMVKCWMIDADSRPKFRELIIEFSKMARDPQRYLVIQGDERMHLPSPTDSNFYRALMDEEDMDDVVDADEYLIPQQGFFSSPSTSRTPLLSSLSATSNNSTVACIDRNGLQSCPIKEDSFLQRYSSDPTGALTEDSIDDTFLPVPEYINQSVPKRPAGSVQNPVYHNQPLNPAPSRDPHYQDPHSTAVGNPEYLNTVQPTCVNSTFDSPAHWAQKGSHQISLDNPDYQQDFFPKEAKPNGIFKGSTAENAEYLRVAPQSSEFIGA
T1 sequence (P00533 25-1210 T790M/C797S/L858R): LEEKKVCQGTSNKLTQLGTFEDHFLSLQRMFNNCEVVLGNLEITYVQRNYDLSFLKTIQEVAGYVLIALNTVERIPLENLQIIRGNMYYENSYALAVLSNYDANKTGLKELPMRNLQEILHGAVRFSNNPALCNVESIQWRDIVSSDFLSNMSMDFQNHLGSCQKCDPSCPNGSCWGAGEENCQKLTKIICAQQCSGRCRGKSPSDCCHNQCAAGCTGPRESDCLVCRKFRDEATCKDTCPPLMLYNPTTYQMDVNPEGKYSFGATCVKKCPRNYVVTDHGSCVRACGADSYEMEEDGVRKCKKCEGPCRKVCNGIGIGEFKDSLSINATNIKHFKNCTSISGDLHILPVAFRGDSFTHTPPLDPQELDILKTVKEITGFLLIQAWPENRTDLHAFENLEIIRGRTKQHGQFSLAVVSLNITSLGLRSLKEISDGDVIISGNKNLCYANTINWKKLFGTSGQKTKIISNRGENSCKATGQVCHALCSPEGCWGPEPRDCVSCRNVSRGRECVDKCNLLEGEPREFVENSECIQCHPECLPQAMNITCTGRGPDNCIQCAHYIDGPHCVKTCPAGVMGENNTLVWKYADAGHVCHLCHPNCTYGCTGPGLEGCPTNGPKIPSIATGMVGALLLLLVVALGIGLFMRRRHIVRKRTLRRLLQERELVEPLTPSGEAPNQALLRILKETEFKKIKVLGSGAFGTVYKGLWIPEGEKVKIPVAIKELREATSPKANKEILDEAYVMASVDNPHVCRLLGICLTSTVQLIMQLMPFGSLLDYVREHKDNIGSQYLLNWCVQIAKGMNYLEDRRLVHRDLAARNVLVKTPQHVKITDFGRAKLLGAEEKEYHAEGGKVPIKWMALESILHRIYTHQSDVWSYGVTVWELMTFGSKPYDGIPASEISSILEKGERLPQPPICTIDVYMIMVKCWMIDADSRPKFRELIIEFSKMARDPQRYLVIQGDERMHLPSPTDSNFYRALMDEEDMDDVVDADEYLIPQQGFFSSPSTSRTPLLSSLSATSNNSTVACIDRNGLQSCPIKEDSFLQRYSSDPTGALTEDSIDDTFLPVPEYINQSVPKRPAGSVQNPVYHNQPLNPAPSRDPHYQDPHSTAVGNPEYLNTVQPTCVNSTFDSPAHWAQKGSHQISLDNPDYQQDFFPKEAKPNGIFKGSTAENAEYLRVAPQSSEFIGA
CtermHisTag-mEGFR Wild type, sequence (P00533 whole entry): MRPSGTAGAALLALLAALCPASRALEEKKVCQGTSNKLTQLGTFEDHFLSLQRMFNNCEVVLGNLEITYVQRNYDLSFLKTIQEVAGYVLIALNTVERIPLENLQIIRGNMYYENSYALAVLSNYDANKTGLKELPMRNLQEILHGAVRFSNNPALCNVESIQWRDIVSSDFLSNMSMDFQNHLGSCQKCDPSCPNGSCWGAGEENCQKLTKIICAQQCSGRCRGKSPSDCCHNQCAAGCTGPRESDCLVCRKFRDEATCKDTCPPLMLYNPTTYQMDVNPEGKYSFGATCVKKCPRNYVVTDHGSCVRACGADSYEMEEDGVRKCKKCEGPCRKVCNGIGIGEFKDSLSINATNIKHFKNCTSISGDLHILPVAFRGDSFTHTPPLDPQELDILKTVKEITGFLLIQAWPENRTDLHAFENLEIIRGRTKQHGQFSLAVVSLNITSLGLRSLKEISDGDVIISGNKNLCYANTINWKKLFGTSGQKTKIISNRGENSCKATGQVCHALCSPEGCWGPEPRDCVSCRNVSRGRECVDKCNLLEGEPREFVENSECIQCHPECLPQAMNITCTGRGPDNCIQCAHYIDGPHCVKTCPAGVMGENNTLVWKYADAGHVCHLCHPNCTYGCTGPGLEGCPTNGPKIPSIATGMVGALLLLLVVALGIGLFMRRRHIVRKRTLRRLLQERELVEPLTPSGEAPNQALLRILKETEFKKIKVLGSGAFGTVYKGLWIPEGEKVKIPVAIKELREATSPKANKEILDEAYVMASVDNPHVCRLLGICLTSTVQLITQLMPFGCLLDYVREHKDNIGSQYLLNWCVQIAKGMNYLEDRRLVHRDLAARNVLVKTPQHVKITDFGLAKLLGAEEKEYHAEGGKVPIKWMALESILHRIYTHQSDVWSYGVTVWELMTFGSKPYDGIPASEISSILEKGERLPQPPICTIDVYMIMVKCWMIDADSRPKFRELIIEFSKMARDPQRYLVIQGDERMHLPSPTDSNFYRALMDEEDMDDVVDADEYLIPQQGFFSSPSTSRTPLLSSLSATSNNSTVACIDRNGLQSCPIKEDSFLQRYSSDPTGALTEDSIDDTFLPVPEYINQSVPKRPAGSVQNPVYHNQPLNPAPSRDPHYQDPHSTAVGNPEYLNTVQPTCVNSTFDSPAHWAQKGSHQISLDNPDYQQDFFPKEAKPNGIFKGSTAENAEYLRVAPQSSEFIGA
T2 sequence (P00533 25-1210 T790M/L858R): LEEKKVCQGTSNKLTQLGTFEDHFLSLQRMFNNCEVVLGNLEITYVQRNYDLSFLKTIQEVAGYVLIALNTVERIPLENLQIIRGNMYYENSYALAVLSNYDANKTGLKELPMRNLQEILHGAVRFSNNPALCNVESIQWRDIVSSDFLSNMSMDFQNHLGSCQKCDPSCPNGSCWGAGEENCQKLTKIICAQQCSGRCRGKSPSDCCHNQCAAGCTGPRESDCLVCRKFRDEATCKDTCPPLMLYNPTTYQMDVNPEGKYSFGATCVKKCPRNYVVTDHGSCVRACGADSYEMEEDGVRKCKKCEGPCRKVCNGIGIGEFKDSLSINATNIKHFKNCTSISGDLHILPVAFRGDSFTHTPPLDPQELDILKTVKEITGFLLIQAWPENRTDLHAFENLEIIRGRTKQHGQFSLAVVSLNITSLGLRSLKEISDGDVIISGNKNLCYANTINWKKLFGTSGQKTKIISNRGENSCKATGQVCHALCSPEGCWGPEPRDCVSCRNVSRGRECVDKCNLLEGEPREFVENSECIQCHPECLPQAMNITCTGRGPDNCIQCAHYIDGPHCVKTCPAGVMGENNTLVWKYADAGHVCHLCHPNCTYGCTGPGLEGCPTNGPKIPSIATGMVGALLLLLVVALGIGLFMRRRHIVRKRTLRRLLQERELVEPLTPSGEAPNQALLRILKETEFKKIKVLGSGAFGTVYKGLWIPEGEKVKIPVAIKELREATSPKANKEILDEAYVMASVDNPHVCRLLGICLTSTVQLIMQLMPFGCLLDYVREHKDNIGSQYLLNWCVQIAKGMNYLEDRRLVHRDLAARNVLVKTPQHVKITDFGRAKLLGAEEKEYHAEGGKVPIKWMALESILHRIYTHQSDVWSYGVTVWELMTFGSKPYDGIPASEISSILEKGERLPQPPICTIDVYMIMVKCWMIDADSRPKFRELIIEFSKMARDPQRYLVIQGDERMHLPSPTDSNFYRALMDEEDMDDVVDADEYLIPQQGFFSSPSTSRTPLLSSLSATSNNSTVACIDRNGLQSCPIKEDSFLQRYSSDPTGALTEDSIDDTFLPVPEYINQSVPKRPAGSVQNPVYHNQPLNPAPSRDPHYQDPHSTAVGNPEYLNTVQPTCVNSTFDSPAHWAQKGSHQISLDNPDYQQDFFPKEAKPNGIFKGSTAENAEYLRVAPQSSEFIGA

Row | SMILES | pIC50 [1] | pIC50 [2] | pIC50 [3] | pIC50 [4]
1 | C#Cc1c(C)c(=O)n(Cc2cccnc2)c2nc(Nc3ccc(N4CCN(C)CC4)cc3)ncc12 [Example 116, 5-ethynyl-6-methyl-2-{[4-(4-methylpiperazin-1-yl)phenyl]amino}-8-(pyridin-3-ylmethyl)pyrido[2,3-d]pyrimidin-7-one] | 5.00 to 6.00 | < 5.52 | < 5.52 | 5.52 to 6.00
2 | C#Cc1cc(=O)n(C2CC(=O)N(C)C2)c2nc(Nc3ccc(N4CCN(C)CC4)cc3)ncc12 (centres unmarked) [Example 117, 4-(5-ethynyl-2-{[4-(4-methylpiperazin-1-yl)phenyl]amino}-7-oxopyrido[2,3-d]pyrimidin-8-yl)-1-methylpyrrolidin-2-one] | < 5.00 | < 5.52 | < 5.52 | < 5.52
3 | C#Cc1cc(=O)n(CC2CCNC2=O)c2nc(Nc3ccc(N4CCN(C)CC4)cc3)ncc12 (centres unmarked) [Example 119, 3-[(5-ethynyl-2-{[4-(4-methylpiperazin-1-yl)phenyl]amino}-7-oxopyrido[2,3-d]pyrimidin-8-yl)methyl]pyrrolidin-2-one] | < 5.00 | 6.00 to 6.30 | 6.00 to 6.30 | < 5.52
4 | C#Cc1cc(=O)[nH]c2nc(Nc3ccccc3OC)ncc12 [Example 120, 5-ethynyl-2-((2-methoxyphenyl)amino)pyrido[2,3-d]pyrimidin-7(8H)-one] | 5.00 to 6.00 | < 5.52 | < 5.52 | < 5.52
5 | C#Cc1c(-c2ccccc2Cl)c(=O)n(C)c2nc(Nc3cccc(OC)c3)ncc12 [Example 131, 6-(2-chlorophenyl)-5-ethynyl-2-[(3-methoxyphenyl)amino]-8-methylpyrido[2,3-]pyrimidin-7-one] | 5.00 to 6.00 | < 5.52 | 5.52 to 6.00 | < 5.52
6 | C#Cc1c(-c2ccccc2Cl)c(=O)n(C)c2nc(Nc3cccc(CO)c3)ncc12 [Example 132, 6-(2-chlorophenyl)-5-ethynyl-2-{[3-(hydroxymethyl)phenyl]amino}-8-methylpyrido[2,3-]pyrimidin-7-one] | > 6.00 | 5.52 to 6.00 | 6.00 to 6.30 | 5.52 to 6.00
7 | C#Cc1c(-c2c(Cl)cccc2Cl)c(=O)n(C)c2nc(Nc3ccc(N(C)CCN(C)C)cc3)ncc12 [Example 134, 6-(2,6-dichlorophenyl)-2-[(4-{[2-(dimethylamino)ethyl](methyl)amino}phenyl)amino]-5-ethynyl-8-methylpyrido[2,3-d]pyrimidin-7-one] | < 5.00 | < 5.52 | < 5.52 | < 5.52
8 | C#Cc1c(-c2cccc(F)c2Cl)c(=O)n(C)c2nc(Nc3ccc(N(C)CCN(C)C)cc3)ncc12 [Example 135, 6-(2-chloro-3-fluorophenyl)-2-[(4-{[2-(dimethylamino)ethyl](methyl)amino}phenyl)amino]-5-ethynyl-8-methylpyrido[2,3-d]pyrimidin-7-one] | > 6.00 | 6.00 to 6.30 | 6.00 to 6.30 | 5.52 to 6.00
9 | C#Cc1c(-c2cc(OC)ccc2Cl)c(=O)n(C)c2nc(Nc3ccc(N(C)CCN(C)C)cc3)ncc12 [Example 136, 6-(2-chloro-5-methoxyphenyl)-2-[(4-{[2-(dimethylamino)ethyl](methyl)amino}phenyl)amino]-5-ethynyl-8-methylpyrido[2,3-d]pyrimidin-7-one] | > 6.00 | 6.00 to 6.30 | > 6.30 | 5.52 to 6.00
10 | C#Cc1c(-c2cc(F)ccc2Cl)c(=O)n(C)c2nc(Nc3ccc(N(C)CCN(C)C)cc3)ncc12 [Example 137, 6-(2-chloro-5-fluorophenyl)-2-[(4-{[2-(dimethylamino)ethyl](methyl)amino}phenyl)amino]-5-ethynyl-8-methylpyrido[2,3-d]pyrimidin-7-one] | > 6.00 | > 6.30 | 6.00 to 6.30 | 5.52 to 6.00
11 | C#Cc1c(-c2ccncc2Cl)c(=O)n(C)c2nc(Nc3ccc(N(C)CCN(C)C)cc3)ncc12 [Example 139, 6-(3-chloropyridin-4-yl)-2-[(4-{[2-(dimethylamino)ethyl](methyl)amino}phenyl)amino]-5-ethynyl-8-methylpyrido [2,3-d]pyrimidin-7-one] | > 6.00 | 5.52 to 6.00 | 5.52 to 6.00 | < 5.52
12 | C#Cc1c(Nc2ccccc2)c(=O)n(C)c2nc(Nc3ccc(N(C)CCN(C)C)cc3)ncc12 [Example 144, 2-[(4-{[2-(dimethylamino)ethyl](methyl)amino}phenyl)amino]-5-ethynyl-8-methyl-6-(phenylamino)pyrido[2,3-d]pyrimidin-7-one] | > 6.00 | 5.52 to 6.00 | 5.52 to 6.00 | > 6.30
13 | C#Cc1c(C2CC2)c(=O)n(C)c2nc(Nc3ccc(N4CCN(C)CC4)cc3)ncc12 [Example 148, 6-cyclopropyl-5-ethynyl-8-methyl-2-{[4-(4-methylpiperazin-1-yl)phenyl]amino}pyrido[2,3-d]pyrimidin-7-one] | < 5.00 | < 5.52 | < 5.52 | < 5.52
14 | C#Cc1c(C)c(=O)n(C)c2nc(Nc3ccc(N4CCN(C)CC4)cc3)ncc12 [Example 149, 5-ethynyl-6,8-dimethyl-2-{[4-(4-methylpiperazin-1-yl)phenyl]amino}pyrido[2,3-d]pyrimidin-7-one] | 5.00 to 6.00 | < 5.52 | < 5.52 | < 5.52

The next lines start with the values.

Row | pIC50 [1] | pIC50 [2] | pIC50 [3] | pIC50 [4] | SMILES
15 | > 6.00 | 5.52 to 6.00 | 6.00 to 6.30 | 5.52 to 6.00 | C#Cc1c(C)c(=O)n(Cc2cccnc2)c2nc(Nc3ccc(N4CCN(C)CC4)cc3)ncc12 [Example 115, 5-ethynyl-6-methyl-2-{[4-(4-methylpiperazin-1-yl)phenyl]amino}-8-(pyridin-3-ylmethyl)pyrido[2,3-d]pyrimidin-7-one]
16 | > 6.00 | > 6.30 | > 6.30 | 5.52 to 6.00 | C#Cc1cc(=O)n(Cc2ccn(C)n2)c2nc(Nc3ccc(N4CCN(C)CC4)cc3)ncc12 [Example 118, 5-ethynyl-2-{[4-(4-methylpiperazin-1-yl)phenyl]amino}-8-[(1-methylpyrazol-3-yl)methyl]pyrido[2,3-d]pyrimidin-7-one]
17 | > 6.00 | < 5.52 | 5.52 to 6.00 | 5.52 to 6.00 | C#Cc1c(-c2ccccc2Cl)c(=O)n(C)c2nc(Nc3ccc(N(C)CCN(C)C)cc3)ncc12 [Example 126]
18 | > 6.00 | 5.52 to 6.00 | 6.00 to 6.30 | 6.00 to 6.30 | C#Cc1c(-c2ccccc2Cl)c(=O)n(C)c2nc(Nc3ccc(N4CCN(C)CC4)cc3OC)ncc12 [Example 127, 6-(2-chlorophenyl)-5-ethynyl-2-{[2-methoxy-4-(4-methylpiperazin-1-yl)phenyl]amino}-8-methylpyrido[2,3-d]pyrimidin-7-one]
19 | > 6.00 | < 5.52 | 6.00 to 6.30 | > 6.30 | C#Cc1c(-c2ccccc2Cl)c(=O)n(C)c2nc(Nc3ccc(N4CCN(C)CC4)cc3)ncc12 [Example 128, 6-(2-chlorophenyl)-5-ethynyl-8-methyl-2-{[4-(4-methylpiperazin-1-yl)phenyl]amino}pyrido[2,3-d]pyrimidin-7-one]
20 | > 6.00 | < 5.52 | 6.00 to 6.30 | 6.00 to 6.30 | C#Cc1c(-c2ccccc2Cl)c(=O)n(C)c2nc(Nc3ccc(OCCN(C)C)cc3)ncc12 [Example 129, 6-(2-chlorophenyl)-2-({4-[2-(dimethylamino)ethoxy]phenyl}amino)-5-ethynyl-8-methylpyrido[2,3-d]pyrimidin-7-one]
